Reference: US8729047B2, “Compositions for inhibiting redox-sensitive GTPases” (Board of Regents, The University of Texas System, priority 2010, dated 2014)
Read-outs that look alike come from different tables or passages of the source.

Assays:
RhoA = biological target: T1, RhoA (Homo sapiens, UniProt P61586); assay: Competitive binding assay, [3H]GDP-loaded Rho protein titrated with 6-TGDP (FIG. 16A)
T1 construct: made in house; host or cells: E. coli
Protocol: FIG. 16. Kinetic properties of RhoC with 6-TGDP in the presence or absence of a redox agent. All kinetic analyses are described elsewhere herein. (A) ^appKD values of Rac1, RhoA, RhoC, and RhoC C20S for 6-TGDP were estimated to be 7.9, 11.6, 11.8, and 11.2 μM, respectively. ^trueKD values of Rac1, RhoA, and RhoC for 6-TGDP were then calculated to be 5.1, 10.8, 11.1, and 10.5 μM, respectively, by using a compensation equation, ^trueKD for 6-TGDP=^appKD for 6-TGDP/(1+[[^3H]GDP]/^trueKD for GDP) (Heo, J., and Hong, I. (2010) Biochemistry 49, 3965-3976), in conjunction with the values given. […] The GDP dissociation rates from RhoC C20S by NO, .NO2, and N2O3 were estimated to be 0.02×10^−3, 0.05×10^−3, and 0.04×10^−3 s^−1, respectively. […] (D) ^appKD values of RhoC for [^3H]GDP in the presence or absence of DTT were estimated to be 22.4 μM and […], respectively. ^appKD values of C20S RhoC for [^3H]GDP in the presence or absence of DTT were determined to be 24.8 μM and 25.2 μM, respectively. […]
(a) A competitive binding assay was performed to determine the binding affinity of Rho GTPase and 6-TGDP. […] Each membrane was washed three times with the assay buffer, and radioactivity was determined using a Beckman-Coulter scintillation counter. The radioactivity of the sample (Rho protein-bound [^3H]GDP) was converted into, and thus plotted, as the fraction of mol GDP per mol total Rho protein. […]

Rac1 = Rac1 (Homo sapiens, UniProt P63000); assay: as above; parameters: made in house; host or cells: E. coli
Protocol: FIG. 16. Kinetic properties of RhoC with 6-TGDP in the presence or absence of a redox agent. All kinetic analyses are described elsewhere herein. (A) ^appKD values of Rac1, RhoA, RhoC, and RhoC C20S for 6-TGDP were estimated to be 7.9, 11.6, 11.8, and 11.2 μM, respectively. ^trueKD values of Rac1, RhoA, […] for 6-TGDP were then calculated to be 5.1, 10.8, 11.1, and 10.5 μM, respectively, by using a compensation equation, ^trueKD for 6-TGDP=^appKD for 6-TGDP/(1+[[^3H]GDP]/^trueKD for GDP) (Heo, J., and Hong, I. (2010) Biochemistry 49, 3965-3976), in conjunction with the values given. […] The GDP dissociation rates from RhoC C20S by NO, .NO2, and N2O3 were estimated to be 0.02×10^−3, 0.05×10^−3, and 0.04×10^−3 s^−1, respectively. […] (D) ^appKD values of RhoC for [^3H]GDP in the presence or absence of DTT were estimated to be 22.4 μM and […], respectively. ^appKD values of C20S RhoC for [^3H]GDP in the presence or absence of DTT were determined to be 24.8 μM and 25.2 μM, respectively. The regression values associated with these fits were >0.8595. All data points associated with vertical standard error bars shown in this figure are the mean values of triplicate measurements.
Transition metal-free assay buffer and vials as described in a previous study (Heo et al. Biochemistry 49, 3965-3976 (2010)) were used for all kinetic assays. The kinetic assay buffer contains the highest grade of 50 mM NaCl, 10 mM MgCl2, 1 mM EDTA, and 0.1 mM DTPA in 50 mM TrisHCl (pH 7.4). Before performance of any of the assays, all protein samples also were dialyzed with a metal-free buffer under anaerobic conditions. As with RhoA and Rac1 (Heo et al. J. Biol. Chem. 280, 31003-31010 (2005)), C20S RhoC were expressed in E. coli and purified using anionic and size exclusion columns.
(a) A competitive binding assay was performed to determine the binding affinity of Rho GTPase and 6-TGDP. The radiolabeled [^3H]GDP-loaded Rho protein (1 μM) was titrated with various concentrations of 6-TGDP. The titrated Rho protein sample then was spotted onto a nitrocellulose membrane. Each membrane was washed three times with the assay buffer, and radioactivity was determined using a Beckman-Coulter scintillation counter. The radioactivity of the sample (Rho protein-bound [^3H]GDP) was converted into, and thus plotted, as the fraction of mol GDP per mol total Rho protein. The apparent dissociation constant (^appKD) of the Rho protein with [^3H]GDP in the presence of 6-TGDP was determined by using Prism software to fit the titration curve to a hyperbola.

[1] = [3H]GDP-loaded Rho protein 1 μM titrated with 6-TGDP, read-out: appKD for 6-TGDP
[2] = calculated by compensation equation, read-out: trueKD for 6-TGDP

T1 sequence (P61586 whole entry, species assumed): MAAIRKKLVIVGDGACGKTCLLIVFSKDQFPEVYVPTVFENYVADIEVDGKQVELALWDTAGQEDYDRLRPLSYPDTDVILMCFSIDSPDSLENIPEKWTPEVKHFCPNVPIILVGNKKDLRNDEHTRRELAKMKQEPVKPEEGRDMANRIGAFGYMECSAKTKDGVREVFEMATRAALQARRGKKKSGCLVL

## Nc1nc2c(ncn2[C@@H]2O[C@H](COP(=O)(O)OP(=O)(O)O)[C@@H](O)[C@H]2O)c(=S)[nH]1 [6-TGDP, 6-thioguanosine diphosphate]
RhoA; [1]
  Kd: 11.6 µM
RhoA; [2]
  Kd: 10.8 µM
Rac1; [1]
  Kd: 7.9 µM
Rac1; [2]
  Kd: 5.1 µM
